Consider 23 compounds from patent US9000175B2, “Bicyclic GPR119 modulators” (Lupin Limited, priority 2010, dated 2015).

Several values for one entry are separate records, joined by “and”; a condition that tells them apart may be missing. Equal values may be shown once.

Assay [1] has as its system C57 BL/6J mice. Kind of assay: Oral glucose tolerance test. It is filed as in vivo. Particulars: male C57 BL/6J mice fasted 16 h, 10 mg/kg oral gavage 30 min before glucose bolus 3 g/kg, 20-120 min; for % reduction in delta AUC at 10 mg/kg: blood glucose delta AUC; for % reduction in total AUC at 10 mg/kg: blood glucose total AUC. As for the experimental part:
Oral Glucose Tolerance Test:
9-10 weeks old male C57 BL/6J mice were maintained on a regular chow diet. The day of the experiment mice were fasted for 16 h and then randomized in to groups (n=7-8) based on blood glucose and bodyweight to receive vehicle (80% PEG400, 10% Tween80, 10% Ethanol) or test compounds (at 10 mg/kg). Vehicle or test compounds were delivered via oral gavage at 10 ml/kg volume. Thirty minutes later, the mice were dosed orally with a glucose bolus (3 g/kg) at 10 ml/kg volume. Blood glucose measurements were taken at 20, 40, 60 and 120 minutes after glucose administration by glucometer (CONTOUR TS, Bayer). Total AUC and Delta AUC were calculated by using graph pad prism (5.0).

Assay [2] deals with T1, human GPR119 (Homo sapiens, UniProt Q8TDV5).
T1 construct: expressed in transfected cells
T1 sequence (Q8TDV5 1-335): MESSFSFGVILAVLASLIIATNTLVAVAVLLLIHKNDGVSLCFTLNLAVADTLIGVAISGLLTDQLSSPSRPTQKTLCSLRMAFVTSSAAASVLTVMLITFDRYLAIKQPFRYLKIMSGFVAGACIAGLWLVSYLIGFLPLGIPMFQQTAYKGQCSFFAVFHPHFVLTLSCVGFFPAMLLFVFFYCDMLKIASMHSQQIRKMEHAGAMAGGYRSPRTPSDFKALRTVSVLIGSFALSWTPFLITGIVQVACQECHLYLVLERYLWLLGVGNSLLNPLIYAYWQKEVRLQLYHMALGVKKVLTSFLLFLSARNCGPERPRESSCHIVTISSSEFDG
Kind of assay: Cyclic AMP assay in stable cell line. It is filed as cell-based. The settings on record: CHO-K1 cells stably transfected with human GPR119; cAMP levels (FRET, cAMP femto kit); 1 h at 37° C; read-out: EC50 Range. On the procedure: Cyclic AMP Assay in Stable Cell Line:
Chinese Hamster Ovary (CHO-K1) cells were stably transfected with human GPR119 and were maintained in Ham's F-12 complete medium containing 10% heat inactivated FBS (Sigma, UK). The cells were maintained under a selection pressure with 500 μg/ml G418 (GENETICIN). Stable clones were analyzed for functional cAMP response to OEA (oleoylethanolamide).
To estimate activation of GPR119 and induction of cAMP levels by GPR119 agonists, cells were serum starvation for 18-24 h, trypsinized and seeded in 96 well plates at a, density of 7500 cells/well. The cells were then treated with test compounds diluted in serum free Ham's F12 for 1 h at 37° C. The cAMP levels were measured by using the cAMP femto kit (CisBio) by following the manufacturer's instructions. Following treatment with a test compound, the cells were lysed and cAMP levels were estimated by adding D2-labelled cAMP and europium-cryptate conjugated anti-cAMP antibody. Close proximity of D2 and cryptate results in FRET and the subsequent fluorescence that is measured at 665 and 620 nm. The FRET response is calculated as the ratio of fluorescence at 665 to fluorescence at 620 nm. The unlabelled cAMP produced as a result of GPR119 activation/agonism competes with the D2-cAMP leading to a decrease in the FRET signal. Thus the FRET signal is inversely proportional to the amount of cAMP produced by the treated cells. In a separate set of wells, known concentrations of cAMP were added in order to get a standard linear curve for extrapolation of the cAMP values in the unknown/test samples. Fluorescence was measured on BMG Labtech PHERAstar machine.
The concentration of compound required to stimulate a half-maximal response (EC50) was determined using the GraphPad Prism software.
The compounds prepared were tested using the above assay procedure and the results obtained are given below.
Background: Cyclic AMP is a second messenger, typically raised through Gs and lowered through Gi signalling.

As a reminder, the EC50 is the concentration that produces a half-maximal response. Take `CCc1cnc(N2CCC(Oc3ccc(-n4ccc5cc(C(=O)NC)ccc54)nc3)CC2)nc1` [Example-63, 1-(5-((1-(5-Ethylpyrimidin-2-yl)piperidin-4-yl)oxy)pyridin-2-yl)-N-methyl-1H-indole-5-carboxamide]: in assay [1], the “% reduction in delta AUC at 10 mg/kg” value was found to be 28% and the “% reduction in total AUC at 10 mg/kg” value is reported as 19%. Besides, the EC50 in assay [2] is below 50 nM.
Take `CC(C)c1noc(N2CCC(Nc3ccc(-n4ccc5cc(S(C)(=O)=O)ccc54)nc3)CC2)n1` [Example-120, N-(1-(3-Isopropyl-1,2,4-oxadiazol-5-yl)piperidin-4-yl)-6-(5-(methylsulfonyl)-1H-indol-1-yl)pyridin-3-amine]: in assay [2], the 50% effective concentration (EC50) is below 50 nM.
For the compound `CCc1cnc(N2CCC(Oc3ccc(-n4ccc5cc(NC(=O)C(C)C)ccc54)nc3)CC2)nc1` [Example-123, N-(1-(5-((1-(5-Ethylpyrimidin-2-yl)piperidin-4-yl)oxy)pyridin-2-yl)-1H-indol-5-yl)isobutyramide], in assay [2], the EC50 was below 50 nM.
The same measure, in the same setting: the same measure for `CC(C)OC(=O)N1CCC(COc2ccc(-n3ccc4cc(NC(=O)C(C)C)ccc43)nc2)CC1` [Example-126, Isopropyl 4-(((6-(5-isobutyramido-1H-indol-1-yl)pyridin-3-yl)oxy)methyl)piperidine-1-carboxylate]: < 50 nM and 50 to 250 nM.
`CC(C)C(=O)Nc1ccc2c(ccn2-c2ccc(OC3CCN(C(=O)C(C)C)CC3)cn2)c1` [Example-127, N-(1-(5-((1-Isobutyrylpiperidin-4-yl)oxy)pyridin-2-yl)-1H-indol-5-yl) isobutyramide]: the EC50 in assay [2] is below 50 nM.
As to `CCc1cnc(N2CCC(Oc3ccc(-n4ccc5cc(NC(=O)OC(C)C)ccc54)nc3)CC2)nc1` [Example-132, Isopropyl(1-(5-((1-(5-ethylpyrimidin-2-yl)piperidin-4-yl)oxy)pyridin-2-yl)-1H-indol-5-yl)carbamate], the EC50 in assay [2] is below 50 nM.
The same measure, in the same setting: the result for `CC(C)NC(=O)c1ccc2c(c1)CCN2c1ccc(OC2CCN(C(=O)OC(C)(C)C)CC2)cn1` [Example-136, tert-Butyl-4-((6-(5-(isopropylcarbamoyl)indolin-1-yl)pyridin-3-yl)-oxy) piperidine-1-carboxylate] reads below 50 nM.
For `CCOC(=O)Nc1ccc2c(ccn2-c2ccc(OC3CCN(c4nc(C(C)C)no4)CC3)cn2)c1` [Example-141, Ethyl(1-(5-((1-(3-isopropyl-1,2,4-oxadiazol-5-yl)piperidin-4-yl)oxy)pyridin-2-yl)-1H-indol-5-yl)carbamate], in assay [2], the EC50 is below 50 nM.
As for `CCOC(=O)Nc1ccc2c(ccn2-c2ccc(OC3CCN(c4nc(CC)no4)CC3)cn2)c1` [Example-142, Ethyl(1-(5-((1-(3-ethyl-1,2,4-oxadiazol-5-yl)piperidin-4-yl)oxy)pyridin-2-yl)-1H-indol-5-yl)carbamate], in assay [1], the “% reduction in delta AUC at 10 mg/kg” value is listed as 35% and the “% reduction in total AUC at 10 mg/kg” value was 20%.
As to `CCc1noc(N2CCC(Oc3ccc(-n4ccc5cc(NC(=O)OC(C)C)ccc54)nc3)CC2)n1` [Example-143, Isopropyl(1-(5-((1-(3-ethyl-1,2,4-oxadiazol-5-yl)piperidin-4-yl)oxy)pyridin-2-yl)-1H-indol-5-yl)carbamate], the EC50 in assay [2] is below 50 nM.
Regarding `CCc1noc(N2CCC(Oc3ccc(-n4ccc5cc(C(=O)N(C)C)ccc54)nc3)CC2)n1` [Example-147, 1-(5-((1-(3-Ethyl-1,2,4-oxadiazol-5-yl)piperidin-4-yl)oxy)pyridin-2-yl)-N,N-dimethyl-1H-indole-5-carboxamide], in assay [2], the concentration for a half-maximal effect (EC50) lay within 50 to 250 nM.
Same read-out and setting: the same measure for `CS(=O)(=O)c1ccc2c(ccn2-c2ccc(OC3CCN(Cc4ccc(C(F)(F)F)cc4)CC3)cn2)c1` [Example-153, 5-(Methylsulfonyl)-1-(5-((1-(4-(trifluoromethyl)benzyl)piperidin-4-yl)oxy)pyridin-2-yl)-1H-indole]: 50 to 250 nM; for `CCc1cnc(N2CCC(Oc3ccc(-n4ccc5cc(OC)cnc54)nc3)CC2)nc1` [Example-157, 1-(5-((1-(5-Ethylpyrimidin-2-yl)piperidin-4-yl)oxy)pyridin-2-yl)-5-methoxy-1H-pyrrolo[2,3-b]pyridine]: 50 to 250 nM; for `CC(C)OC(=O)N1CCC(Oc2ccc(-n3ccc4cc(N5CCOC5=O)ccc43)nc2)CC1` [Example-166, Isopropyl 4-((6-(5-(2-oxooxazolidin-3-yl)-1H-indol-1-yl)pyridin-3-yl)oxy)piperidine-1-carboxylate]: 250 to 1000 nM.
On to `CCc1cnc(N2CCC(Oc3ccc(-n4cc(C)c5cc(S(C)(=O)=O)ccc54)nc3)CC2)nc1` [Example-168, 1-(5-((1-(5-Ethylpyrimidin-2-yl)piperidin-4-yl)oxy)pyridin-2-yl)-3-methyl-5-(methylsulfonyl)-1H-indole], for which the concentration for a half-maximal effect (EC50) in assay [2] is below 50 nM.
Turning to `CC(C)OC(=O)N1CCC(Oc2ccc(-n3ccc4cc(S(C)(=O)=O)ccc43)nc2)CC1` [Example-169, Isopropyl 4-((6-(5-(methylsulfonyl)-1H-indol-1-yl)pyridin-3-yl)oxy) piperidine-1-carboxylate], the concentration giving a half-maximal response (EC50) in assay [2] is below 50 nM.
On the same count and under the same terms, the result for `CCc1cnc(N2CCC(Oc3ccc(-n4ccc5cc(S(C)(=O)=O)cc(F)c54)nc3)CC2)nc1` [Example-171, 1-(5-((1-(5-Ethylpyrimidin-2-yl)piperidin-4-yl)oxy)pyridin-2-yl)-7-fluoro-5-(methylsulfonyl)-1H-indole] reads below 50 nM; that for `CCOC(=O)N1CCC(Oc2ccc(-n3ccc4cc(N5CCCC5=O)ccc43)nc2)CC1` [Example-182, Ethyl 4-((6-(5-(2-oxopyrrolidin-1-yl)-1H-indol-1-yl)pyridin-3-yl)oxy) piperidine-1-carboxylate], 50 to 250 nM; that for `CCOC(=O)N1CCC(Oc2ccc(-n3ccc4cc(S(C)(=O)=O)ccc43)nc2)CC1` [Example-185, Ethyl-4-((6-(5-(methylsulfonyl)-1H-indol-1-yl)pyridin-3-yl)oxy)-piperidine-1-carboxylate], 50 to 250 nM.
Same read-out and setting: the same measure for `CCOC(=O)N1CCC(Oc2ccc(-n3ccc4cc(-n5cnnn5)ccc43)nc2)CC1` [Example-187, Ethyl-4-((6-(5-(1H-tetrazol-1-yl)-1H-indol-1-yl)pyridin-3-yl)oxy)-piperidine-1-carboxylate]: below 50 nM; for `CCc1cnc(N2CCC(Oc3ccc(-n4ccc5cc(-n6cncn6)ccc54)nc3)CC2)nc1` [Example-190, 1-(5-((1-(5-Ethylpyrimidin-2-yl)piperidin-4-yl)oxy)pyridin-2-yl)-5-(1H-1,2,4-triazol-1-yl)-1H-indole]: below 50 nM.
Same read-out and setting: the result for `CCOC(=O)N1CCC(Oc2ccc(-n3ccc4cc(-n5cncn5)ccc43)nc2)CC1` [Example-192, Ethyl-4-((6-(5-(1H-1,2,4-triazol-1-yl)-1H-indol-1-yl)pyridin-3-yl)oxy) piperidine-1-carboxylate] reads 250 to 1000 nM; that for `CS(=O)(=O)c1ccc2c(ccn2-c2ccc(OC3CCN(CC4(C(F)(F)F)CC4)CC3)cn2)c1` [Example-193, 5-(Methylsulfonyl)-1-(5-((1-((1-(trifluoromethyl)cyclopropyl)methyl)-piperidin-4-yl)oxy)pyridin-2-yl)-1H-indole], below 50 nM.
